“Also recorded” adds a separate entry of the source. Like-named read-outs stand apart in the source and are kept apart here.
Tests used:
[1] = test system: α2-ARs; test: Radioligand binding at α2-ARs
Experimental: Characterization: Binding affinity. Using AR null stably-transfected cell lines that each express only one of the three individual α1-AR subtypes, compounds are characterized for their selectivity for the α1A-AR in radioligand binding studies. To be sure of no cross-reactivity, binding affinity against the α2-ARs and β-ARs are also measured. Details for such procedures are found generally at references 25-26, 94-98, all of which are herein incorporated by reference.

[2] = Body weight of 3×TG AD mice; format: in vivo, mouse; settings: female 3×TG mice
Experimental: AD mice were first randomized and sorted into control or treatment groups. […] 14 AD mice from each treatment group received Compound 3 in the drinking water (2.611 mg/kg/bw) to deliver a daily dose near the peak potentiation of the cAMP response in the brain at 10^−8M based upon the PAM assay and pharmacokinetics. This was achieved by adding Compound 3 to the drinking water at 32 uM, assuming the mice drink 6 ml/day, with only 10% of bioavailable drug reaching the brain. The drug was administered in the drinking water for 10 months, starting at age 2 months, then subjected to either different cognitive behavioral tests or electrophysiology at age 12 months to maximize the manifestations of AD symptoms in these mice. Mice are maintained on the drug for the duration of the studies and blinded to the operator.
At 12 months of age mice were subjected to long term potentiation (LTP) (FIG. 25).
It is known that females in the 3×TG AD mouse model have higher penetrance for the disease than males so an increase in body weight may be a general sign of better health. Weight loss and muscle loss are well-known symptoms associated with AD (91-93).

[3] = Pharmacokinetics in mice; format: in vivo, mouse; settings: as determined by PK
Experimental: Pharmacokinetics: Mice are dosed for each identified candidate compound via oral gavage and accessed for a three-arm PK study in C57BL/6 mice at 0, 15 min, 30 min, 1 hr, 3 hr, 6 hr, 12 hr, 24 hr, and 48 hrs. Three groups of […] (N=3 per time point) are administered a PO dose of the identified compound of interest and following completion of the PK study, terminal blood plasma samples and brain tissue samples are collected at the time points to determine in vivo BBB penetrance. Parameters tested can include absorption, bioavailability, volume distribution, metabolism, Cmax, tmax, concentration, elimination rate and half-life, and clearance.

[4] = target: T1, α1A-AR (Homo sapiens, UniProt P35348); test: Competition binding with [125I]HEAT at α1A-AR (Rat-1 fibroblast membranes); set-up: expressed in transfected cells; host or cells: Rat-1 fibroblast cells
T1 sequence (P35348 1-466): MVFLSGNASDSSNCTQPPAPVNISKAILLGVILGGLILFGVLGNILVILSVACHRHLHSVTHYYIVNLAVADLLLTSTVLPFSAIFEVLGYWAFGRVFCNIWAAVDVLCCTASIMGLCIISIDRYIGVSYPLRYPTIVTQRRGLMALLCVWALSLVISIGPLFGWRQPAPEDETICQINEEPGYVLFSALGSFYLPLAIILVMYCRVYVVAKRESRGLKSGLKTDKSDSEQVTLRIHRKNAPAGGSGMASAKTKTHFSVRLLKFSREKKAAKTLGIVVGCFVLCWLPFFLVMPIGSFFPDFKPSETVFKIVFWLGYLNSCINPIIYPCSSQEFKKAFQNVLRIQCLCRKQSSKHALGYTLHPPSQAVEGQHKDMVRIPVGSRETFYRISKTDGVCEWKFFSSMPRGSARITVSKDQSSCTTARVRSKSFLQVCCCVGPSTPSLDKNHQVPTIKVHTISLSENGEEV
Experimental: Competition binding assays: […] Assays were performed in duplicate in HEM buffer, in a total assay volume of 1000 μl. […] The above conditions will convert all the conformations of the receptor into a single low affinity site. To show both high and low affinity sites of the receptor (typically seen with GPCR agonists), the GTP is removed from the binding buffer. Nonspecific binding was determined experimentally in the presence of 10^−4 M phentolamine. Unbound radioactivity was separated from membrane-bound radioactivity by filtration through Whatman GF/C filter paper. Filters are washed five times with 5 ml of cold HEM buffer containing 0.5 mMGTP (if added to the binding buffer but not if it was not added to the binding buffer). Bound radioactivity remaining on the filters was counted on an ICN gamma counter operating at 79.8% efficiency. Data are analyzed using Graphpad Prism.

[5] = target: T1, α1A-AR; test: Total inositol phosphate assay at α1A-AR; format: cell-based; set-up: expressed in transfected cells; host or cells: Rat-1 fibroblast cells
Experimental: Total Inositol Phosphate assay: Cells expressing a single α1-adrenergic receptor subtypes are washed and re-plated into 6-well plates containing DMEM media at approximately 5×10^5 cells/well. Cells are allowed to rest till the next day in a CO2 incubator at 37° C. The cells are washed twice with DMEM (no serum), then 2 ml of DMEM is added to each well. 2 ul of ^3H-inositol (at 1 uCi/mL, Perkin-Elmer NET 114 005MC) and 10 mM LiCl is added to each well. The cells are incubated for 1 hour at 37° C. in a CO2 incubator. […] The cells are incubated again for 1 hour at 37° C. in a CO2 incubator. The media is aspirated and 1 mL of ice-cold 0.4M perchloric acid is added. The cells are scraped, transferred to a vial, then 1 mL 0.72M KOH/0.6M KHCO3 is added, the tube vortexed and the contents centrifuged at 2000 rpm for 10 mins. The supernatant is removed and applied to BioRad polyprep columns packed with 1 mL of AG1-X8 resin (BioRad AG1-X8 resin 100-200 mesh #140-1444) in 0.1M formic acid in a holding tray which is over a plastic catch tray. The supernatant is allowed to naturally drip through the column then washed with 8 ml of 0.1M formic acid (2 ml at a time). The columns are transferred via the holding tray to a box of 20 ml scintillation vials so that the columns drip directly into the vials. Total inositol phosphates are eluted off the column with 2 ml of 0.1M formic acid/1M ammonium formate. The columns are eluted a second time into a new scintillation vial with another 2 ml of 0.1M formic acid/1M ammonium formate. 18 ml of Ecoscint A is added to each scintillation vial and vortexed. The vials are allowed to dark adapt overnight at room temperature to reduce autofluorescence. The vials are counted in a scintillation counter on the tritium channel and the cpms from the first and second fractions eluted off the columns are added together.

[6] = target: T1, α1A-AR; test: Effect of compound on binding affinity of norepinephrine, epinephrine or other ligands at α1A-AR; set-up: expressed in transfected cells; host or cells: Rat-1 fibroblast cells

## CC(C)Cc1c(OCC2=NCCN2)cccc1N(C)S(C)(=O)=O [Compound 3, N-[3-(4,5-Dihydro-1H-imidazol-2-ylmethoxy)-2-isobutyl-phenyl]-N-methyl-methanesulfonamide]
[1]
  interaction with α2-ARs: does not interact with high affinity
[2]
  body weight vs untreated: increased body weight; also recorded: retained or gained body weight
[3]
  CMax time point: approx. 3 hr
[4]
  binding behaviour against radiolabeled antagonist 125I-HEAT (full inhibition; competitive or allosteric): cannot fully inhibit
[4]; 0.5 mM GTP in binding buffer, competition with 125I-HEAT, read-out: affinity for the α1A-AR
  Ki: ~100 nM
[4]; GTP removed from binding buffer, read-out: high affinity site
  Ki: 0.001 nM
[5]
  effect on epinephrine-mediated inositol phosphate response at the α1A-AR: no effect
  effect on norepinephrine-mediated inositol phosphate response at the α1A-AR: does not have any effect; also recorded: no effect
[5]; compound alone
  stimulation of inositol phosphate / agonist activity by the compound by itself: cannot stimulate
[6]; 10^−5M
  effect on binding of phentolamine at the α1A-AR: no effect; also recorded: does not change the affinity
[6]; 10^−5M and 10^−7M
  effect on binding of cirazoline at the α1A-AR: does not affect; also recorded: no effect

Reference: patent US12384751B2, “Allosteric activators of the ALPHA1A-adrenergic receptor” (The Cleveland Clinic Foundation, priority 2019, dated 2025)
